# Measurements reported in paper PMC11061149, “Protein mimetic 2D FAST rescues alpha synuclein aggregation mediated early and post disease Parkinson’s phenotypes” (Nature Communications, 2024).
# “And” between values parts separate entries of the source, which are not always exact repeats. Identical values can stand only once.
# Experiments:
# [1] = biological target: T1, α-Synuclein (αS) aggregation (Homo sapiens, UniProt P37840); assay: Thioflavin T (ThT) dye-based αS aggregation assay (de novo); type: biochemical; conditions: for ThT intensity of Synuclein with ligand, Average / ThT intensity of Synuclein with ligand, Trial 1-3: sheet S17; for ThT intensity of Synuclein with ligand, Average: average of 3 trials, Synuclein alone 206, ThT control 37; for ThT intensity of Synuclein with ligand, Trial 1-3: individual trials, Synuclein alone average 206, ThT control average 37
# T1 construct: made in house; host or cells: E. coli BL21(DE3)
# Protocol: We used a 2D FAST approach in OPs to identify potent antagonists of the aggregation of αS. In this approach, we start with a library of monopyridyls with different functional groups. The library of monopyridyls was synthesized using 2-chloro-6-methyl-3-nitropyridine as a common precursor, which was treated with primary alcohols with diverse side chain functionalities via a one-pot reaction (Fig. 1B, a and see Supplementary information for synthetic details). […] We selected the side chains containing hydrophobic, polar, positively charged, and negatively charged functional groups, which mimic the side chains of the amino acids (Fig. 1C). […] The monopyridyl library was screened against the aggregation of 100 μM αS at an equimolar ratio using Thioflavin T (ThT) dye-based aggregation assay (Fig. 1B, b). […] The chloro-dipyridyl was reacted with a library of primary amines/thiols to synthesize a library of dipyridyls (Fig. 1B, e) using a one-pot reaction. […] However, a few dipyridyls required column chromatography to separate them from the starting material side chains because of their very high boiling point (7 out of 21 dipyridyls required column, Supplementary Fig. 1). […]
# Aggregation Kinetics were measured according to a previously described protocol. […] The solutions were placed in a ThermoMixer (Eppendorf, Hamberg, Germany) at 37 °C with constant shaking at 1300 rpm (rpm). At different time points, 5 μL aliquots of each αS solution were added to 95 μL PBS containing 50 μM Thioflavin T (ThT) dye in a Costar black 96 well plate (Corning Inc., Kennebunk, ME). ThT fluorescence intensity was measured (λex = 450 nm and λem = 490 nm) on an Infinite M200PRO plate reader (Tecan, Männedorf, Switzerland), and plotted against time to give a sigmoidal curve typical of amyloid aggregation. For the single point ThT aggregation, 100 μM αS, in the absence and presence of ligands, was aggregated under the described conditions and the ThT fluorescence was reported at 96 h. The reported ThT intensity values are the average of each experiment conducted in triplicate, with the error bars representing the standard deviations or standard error of the mean (s.e.m.) as described in the main manuscript.
# UA196 worms = assay: Confocal counting of healthy DA neurons, post-disease onset PD model of UA196 worms (treatment on day five); type: in vivo, C. elegans; conditions: for number of intact healthy DA neurons (max. 60): day 15 (untreated 13.8 / 12.8); for healthy DA neurons per trial: UA196 worms+Ligands, single trials 1-6, day not given; for Healthy DA neurons, UA196 worms+Ligands: individual trials 1-6
# Protocol: The UA196 worms were bleached, and the eggs were incubated on PLATE 1. On day two, the UA196 worms were transferred (using M9 buffer) on PLATE 2 (without ligand). On day five, 10 UA196 worms were used to determine the number of healthy DA worms using confocal imaging (as described earlier) prior to the treatment with ligands on day five. In tandem, ~50 worms were transferred to PLATE 3 (with ligand) using M9 buffer (10-20 µL) and the plate was incubated at 20 °C in the incubator. On days 10 and 15, 10 UA196 worms from PLATE 2 (without ligand) and PLATE 3 (with ligand) were used to determine the number of healthy DA worms using confocal imaging (as described earlier). For each condition, six biological replicates were performed and at least 10 technical replicates were used for each biological replicate. […] (n = 6 independent experiments and each n consisted of a minimum of ten technical replicates).
# [2] = tested on: UA196 worms (human αS and GFP in DA neurons); assay: Confocal counting of healthy DA neurons in UA196 worms, early treatment (day two and four); type: in vivo, C. elegans; conditions: for number of intact DA neurons in UA196 worms (max. 60): 50 µM ligand on day two and four, day 15 (untreated 13.5); for Number of healthy DA neurons per trial (sheet 7L): UA196 worms + ligand, Day 15, single trials; for Total neurons, UA196 worms+Ligands: one value per trial, day not given for ligand (controls: Day 3, Day 15)
# Source text: The aggregation of αS is associated with the neurodegeneration of DA neurons, which is a pathological hallmark of PD. Next, we investigated the neuroprotective effect of NS163 on the intraneuronal αS aggregation-mediated degeneration of DA neurons in a well-established C. elegans PD model (UA196)[20],[72]–[75]. The UA196 worms express both human αS and GFP in DA neurons under the control of the dopamine promoter genotype (Pdat-1::GFP; Pdat-1::α-SYN). The expression and aggregation of αS in six DA neurons that are located within the anterior region of worms lead to progressive neurodegeneration characteristics during the aging of UA196 worms. This strain has been used to gain insights into the PD-associated mechanisms and to assess the neuroprotective effect of ligands against the intraneuronal αS aggregation[20],[72]–[75]. During the aging of worms, αS protein aggregates and degenerates the DA neurons as represented by the gradual loss of cell bodies as observed from day 3 (Fig. 7b, c, filled red arrow) to day 5 (Fig. 7d, e, empty red arrow), to day 15 (Fig. 7f, g, empty red arrow). Additionally, there was fragmentation and blebbing of neurites from day 3 (Fig. 7b, c, filled yellow arrow) to day 5 (Fig. 7d, e, empty yellow arrow), which has been observed by others as well[72]–[75]. The maximum number of healthy DA neurons in one UA196 worm is six on day 3 (no degeneration) and we used 10 worms/biological replicate, which makes a total of 60 healthy DA neurons/biological replicate. Therefore, for each study, the maximum number of healthy DA neurons in UA196 worms is 60 as an average for each biological replicate. […] None of the UA196 worms had all six healthy DA neurons on day 5 (Fig. 7k, -NS163) and there was a gradual decline in the total number of healthy DA neurons in UA196 worms (Supplementary Fig. 26a). […] The average number of intact DA neurons in UA196 worms treated with NS163 was 59.5, 58.7, and 57.3 on day five, 10, and 15, respectively (Fig. 7j, red line). Additionally, the total number of treated worms with all six intact DA neurons were 57, 52, and 47 on day 5, 10, and 15, respectively (Fig. 7k, Supplementary Fig. 26b).
# In UA196 strain, human αS and GFP are expressed in DA neurons under control of a dopamine transporter-specific promoter [Pdat-1::α-syn+Pdat-1::GFP], which results in age-dependent neurodegeneration of six DA neurons.
# This experiment was performed based on previously described protocols with slight modifications[24],[65],[88]. Briefly, the worm strains (NL5901 or UA196) were bleached at the same time and the eggs were incubated on PLATE 1. On day two, the worms were divided into two batches. One half of the worms were transferred (using M9 buffer) on PLATE 2 (without ligand) and the second half of the worms were transferred to PLATE 3 (with ligand). The concentration of the ligands varied from 10–50 µM as described in the main manuscript. The worms were incubated on PLATE 2 or PLATE 3 up to day 3 at 20 °C in an incubator with constant humidity. On day four, the ligand (10–50 µM, stock conc. = 10 mM in DMSO, DMSO from 0.1–0.5%, v/v) was added again to PLATE 3. For confocal imaging, at least 10 worms per condition (from PLATE 2 or PLATE 3) were transferred to a cover slide containing an anesthetic (40 mM sodium azide), and mounted on glass microscope slide containing 2% agarose pads using a reported protocol. The images of the worms were collected using an Olympus Fluoview FV3000 confocal/2-photon microscope (40 x Plan-Apo/1.3 NA objective with DIC capability) and processed using the OlympusViewer in ImageJ software. For NL5901 worms, the inclusions of the aggregated αS (GFP puncta in the muscle cells) were manually counted (10 worms per condition) for the five-day imaging period (day 5 to day 9) for PLATE 2 or PLATE 3. […]
# [3] = 100 µM αS + equimolar ligand, comparison with reported ligands Fig. 5f, time 0 hr
SMILES,"ThT fluorescence intensity, Average [1, 3]","ThT fluorescence intensity, Average ([1]; Fig. 5f profile, time 6 hr)","ThT fluorescence intensity, Average ([1]; Fig. 5f profile, time 12 hr)","ThT fluorescence intensity, Average ([1]; Fig. 5f profile, time 24 hr)","ThT fluorescence intensity, Average ([1]; Fig. 5f profile, time 36 hr)","ThT fluorescence intensity, Average ([1]; Fig. 5f profile, time 48 hr)","ThT fluorescence intensity, Average ([1]; Fig. 5f profile, time 72 hr)","ThT fluorescence intensity, Average ([1]; Fig. 5f profile, time 96 hr)","ThT intensity of Synuclein with ligand, Average [1]","ThT intensity of Synuclein with ligand, Trial 1-3 [1]",number of intact healthy DA neurons (max. 60) (UA196 worms; 50 μM ligand on day five),healthy DA neurons per trial (UA196 worms),"Healthy DA neurons, UA196 worms+Ligands (UA196 worms)",number of intact DA neurons in UA196 worms (max. 60) [2],Number of healthy DA neurons per trial (sheet 7L) [2],"Total neurons, UA196 worms+Ligands [2]","decrease of the overall ThT intensity ([1]; 100 µM αS, equimolar, after 96 h)","rescue of the degeneration of DA neurons in the post-disease onset PD model, in words (UA196 worms; 50 μM ligand on day five, day 15)","rescue of the degeneration of DA neurons in UA196 worms, in words ([2]; 50 μM ligand)"
C=C(c1ccc(C(=O)O)cc1)c1cc2c(cc1C)C(C)(C)CCC2(C)C [Bexarotene],55.6667,61.3333,52.3333,42,69.6667,159.667,195,186,186.333,176 and 194 and 189,13.2,11 and 17 and 13 and 10,11 and 17 and 13 and 10,19.3,19 and 22 and 20 and 16 and 21 and 18,19 and 22 and 20 and 16 and 21 and 18,,,
O=C(O[C@@H]1Cc2c(O)cc(O)cc2O[C@@H]1c1cc(O)c(O)c(O)c1)c1cc(O)c(O)c(O)c1 [EGCG],56,50.6667,62.3333,61.3333,75.6667,84,151.667,150.333,150.333,126 and 174 and 151,20.5,24 and 17 and 26 and 18 and 21,24 and 17 and 26 and 18 and 21,30.5,26 and 33 and 32 and 27 and 31 and 34,26 and 33 and 32 and 27 and 31 and 34,~ 25%,moderate in rescuing,moderate in rescuing
OCCc1ccc(O)cc1 [Tyrosol],49.6667,48.3333,49.6667,78.6667,140.667,137,175.333,229.667,229.667,238.6 and 233 and 217.4,14.3,12 and 19 and 17 and 11 and 15,12 and 19 and 17 and 11 and 15,21.7,22 and 23 and 17 and 21 and 24,22 and 23 and 17 and 21 and 24,,,
CCCC(CCC)C(=O)O [Valporic acid],62.3333,44,66.6667,135.333,121.333,133.333,167.333,165.667,165.667,177.5 and 155 and 164.5,13.5,9 and 17 and 15 and 11 and 16 and 13,9 and 17 and 15 and 11 and 16 and 13,18.7,21 and 16 and 22 and 17 and 20,21 and 16 and 22 and 17 and 20,,,
